According to patent US8673914B2, “Use of phosphodiesterase inhibitors for treating multidrug resistance” (St. John's University, priority 2011, dated 2014):
Marks after values point to notes of the source that are not given here.

Legend:
HEK293/pcDNA3.1 = experiment: MTT cytotoxicity/reversal assay (Example 1); type: cell-based
Procedure, shortened: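 KB-3-1, ABCB1-overexpressing KB-C2, and HEK293 transfected with empty pcDNA3.1 or ABCG2 (R482) vector. MTT read at 570 nm after 68 h drug exposure plus 4 h MTT at 37 °C. IC50 from survival curves by Bliss method; fold-reversal = IC50 without reversal agent divided by IC50 with it.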

HEK/ABCB1 (ABCB1) = experiment: MTT cytotoxicity/reversal assay (Example 1); details: HEK/ABCB1
Description: The KB-C2 and KB-3-1 were kindly provided by Dr. Akiyama (Kagoshima University, Japan). […] Similarly, the HEK/MRP1 (ABCC1) and HEK/ABCB1 cells were generated by transfecting the HEK293 cells with either the MRP1 expression vector or the ABCB1 expression vector. All of the cell lines were grown in Dulbecco's modified Eagle's medium (DMEM) supplemented with 10% bovine serum, 100 units/ml penicillin, and […] streptomycin in a humidified incubator containing 5% CO2 at 37° C.
(§1) The MTT assay was used to assess cytotoxicity. The cultured cells were harvested with trypsin and resuspended in a final concentration of 4×10^3 cells/well for KB-3-1; 7.5×10^3 cells/well for KB-C2; and 8×10^3 for all of the other cell lines used in this study. Cells were seeded evenly in 96-well multiplates. […] After 68 h of incubation, 20 μl of the MTT solution (4 mg/ml) was added to each well, and the plate was further incubated for 4 h at 37° C., allowing viable cells to convert the yellow-colored MTT into dark-blue formazan crystals. Subsequently, the medium was discarded, and 100 μl of DMSO was added into each well to dissolve the formazan crystals, generating purple color. The absorbance was determined at 570 nm by an OPSYS Microplate Reader from DYNEX Technologies, Inc. (Chantilly, Va.). […] The degree of the reversal of multidrug resistance (MDR) was calculated by dividing the IC50 of an anticancer drug, e.g., an antineoplastic or chemotherapeutic drug (agent, compound), in a cell type in the absence of a reversal agent by the IC50 of the anticancer drug in the same cell type in the presence of the reversal agent. The IC50 values were calculated from survival curves using the Bliss method.

HEK/MRP7 cells [1] = experiment: [^3H]-paclitaxel efflux (Example 4); type: cell-based; details: for accumulated [^3H]-paclitaxel remaining in cells: absence of PDE5 inhibitors; for percentage of intracellular [^3H]-paclitaxel: 5 μM PDE5 inhibitor
Description: (§2) The effect of PDE5 inhibitors on the intracellular accumulation of paclitaxel in HEK293-pcDNA3.1 and HEK/MRP7 cells was measured using [^3H]-paclitaxel. […] For efflux studies, the cells were treated the same as in the drug accumulation study, and then washed three times with ice-cold PBS, and suspended in fresh medium with or without PDE5 inhibitors. Aliquots were evenly collected at various time points (0, 30, 60, and 120 min). Samples from both accumulation and efflux experiments were washed with ice-cold PBS three times and placed in scintillation fluid, and the radioactivity was measured in a Packard TRI-CARB® 1900CA liquid scintillation analyzer from Packard Instrument Company, Inc. (Downers Grove, Ill.).

KB-C2 cells (ABCB1) = experiment: [^3H]-paclitaxel accumulation (Example 1); type: cell-based, human
Description: The intracellular accumulation of [^3H]-paclitaxel was measured as follows. […] Intracellular paclitaxel accumulation was measured by incubating cells with 0.1 μM [^3H]-paclitaxel for 2 h in the presence or absence of the reversal agents at 37° C. The cells were washed three times with ice-cold PBS, then suspended in fresh medium with or without reversal agents at 37° C. Aliquots of the extracellular medium (40 μl) were collected at various time points (0, 60, 120 min), and finally the cells were collected and lysed in 10 mM lysis buffer (pH 7.4, containing 1% Triton X-100 and 0.2% SDS). Each sample was placed in scintillation fluid and the radioactivity was measured in a Packard TRI-CARB1 1900CA liquid scintillation analyzer from Packard Instrument Company, Inc. (Downers Grove, Ill.).

KB-3-1 = experiment: MTT cytotoxicity/reversal assay (Example 1); type: cell-based, human
Description: (§3) The KB-C2 and KB-3-1 were kindly provided by Dr. Akiyama (Kagoshima University, Japan). HEK293-pcDNA3.1 and wild-type HEK/ABCG2 transfected cells were established by selection with G418 after transfecting HEK293 with either (1) empty pcDNA3.1 vector or (2) pcDNA3.1 vector containing full length of ABCG2 coding arginine (R) at amino acid position 482, and were then cultured in a medium with 2 mg/ml of G418 (ABCG2-482-R2 cells). Similarly, the HEK/MRP1 (ABCC1) and HEK/ABCB1 cells were generated by transfecting the HEK293 cells with either the MRP1 expression vector or the ABCB1 expression vector. All of the cell lines were grown in Dulbecco's modified Eagle's medium (DMEM) supplemented with 10% bovine serum, 100 units/ml penicillin, and […] streptomycin in a humidified incubator containing 5% CO2 at 37° C.
as §1

KB-C2 (ABCB1) = experiment: MTT cytotoxicity/reversal assay (Example 1); type: cell-based, human
Description: as §3, §1

HEK/MRP7 cells [2] = experiment: [^3H]-paclitaxel accumulation (Example 4); type: cell-based
Description: as §2

HEK/MRP7 = experiment: MTT cytotoxicity assay (Example 4); type: cell-based;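 also: drug IC50 in HEK/MRP7 divided by IC50 in parental HEK293-pcDNA3.1 cells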
Description: (§4) The MRP7 cDNA was generously provided by Dr. Gary Kruh (University of Illinois, Chicago, Ill.) and inserted into the pcDNA3.1 expression vector. […] Individual colonies were selected in medium containing G418 (1 mg/ml) and cultured for further analysis.
(§5) MTT colorimetric assay was performed to analyze the drug sensitivity as previously described (Shi et al. (2007) Cancer Res. 67:11012-20). HEK293-pcDNA3.1 and HEK/MRP7 cells were seeded into 96-well plates in triplicate at 6000 cells/well.
(§6) After drug incubation of 68 h, 20 μl MTT solution (4 mg/ml) was added into each well. […] The Bliss method was used to calculate the IC50 values according to survival curves.

HEK 293-pcDNA-3.1 = experiment: MTT cytotoxicity assay (Example 4); type: cell-based
Description: as §4, §5, §6

[3] = HEK293/pcDNA3.1, +5 μM reversal agent
[4] = HEK293/pcDNA3.1, +10 μM reversal agent
[5] = HEK 293-pcDNA-3.1, +1.25 μM reversal agent
[6] = HEK 293-pcDNA-3.1, +5 μM reversal agent

CC(=O)O[C@H]1C(=O)[C@@]2(C)[C@H]([C@H](OC(=O)c3ccccc3)[C@]3(O)C[C@H](OC(=O)[C@H](O)[C@@H](NC(=O)c4ccccc4)c4ccccc4)C(C)=C1C3(C)C)[C@]1(OC(C)=O)CO[C@@H]1C[C@@H]2O [Paclitaxel, paclitaxel]
fold reversal, paclitaxel (HEK293/pcDNA3.1; HEK293/pcDNA3.1, alone): (1.00)
fold reversal, paclitaxel (HEK/ABCB1 (ABCB1); alone): (1.00)
accumulated [^3H]-paclitaxel remaining in cells (HEK/MRP7 cells [1]; 30 min): 62.43%
accumulated [^3H]-paclitaxel remaining in cells (HEK/MRP7 cells [1]; 60 min): 39.47%
accumulated [^3H]-paclitaxel remaining in cells (HEK/MRP7 cells [1]; 120 min): 23.44%
intracellular concentration of paclitaxel relative to parental KB-3-1 cells (KB-C2 cells (ABCB1); no reversal agent): approximately 55%
fold reversal, paclitaxel (KB-3-1; alone): (1.00)
fold reversal, paclitaxel (KB-C2 (ABCB1); alone): (1.00)
intracellular concentration of [^3H]-paclitaxel relative to parental HEK293-pcDNA3.1 (HEK/MRP7 cells [2]; no inhibitor): 28.5%
fold-resistance, paclitaxel (HEK/MRP7; alone): (9.21)
fold-resistance, paclitaxel (HEK 293-pcDNA-3.1; HEK 293-pcDNA-3.1, alone): (1.0)^b
IC50 (HEK 293-pcDNA-3.1; read-out: IC50 of paclitaxel): 11.6 ± 1.33 nM

CN1CC(=O)N2[C@H](c3ccc4c(c3)OCO4)c3[nH]c4ccccc4c3C[C@@H]2C1=O [Tadalafil, tadalafil]
fold reversal, vincristine (HEK293/pcDNA3.1; HEK293/pcDNA3.1 (Table 6), +10 μM reversal agent): (1.09)
fold reversal, cisplatin (HEK293/pcDNA3.1; [3]): (0.99)
fold reversal, paclitaxel (HEK293/pcDNA3.1; [3]): (0.99)
fold reversal, vincristine (HEK293/pcDNA3.1; [3]): (1.15)
fold reversal, SN-38 (HEK293/pcDNA3.1; [4]): (0.96)
fold reversal, cisplatin (HEK293/pcDNA3.1; [4]): (1.12)
fold reversal, paclitaxel (HEK293/pcDNA3.1; [4]): (1.21)
fold reversal, vincristine (HEK293/pcDNA3.1; [4]): (1.35)
fold reversal, cisplatin (HEK/ABCB1 (ABCB1); +5 μM reversal agent): (0.94)
fold reversal, paclitaxel (HEK/ABCB1 (ABCB1); +5 μM reversal agent): (1.37)
fold reversal, vincristine (HEK/ABCB1 (ABCB1); +5 μM reversal agent): (1.50)
fold reversal, cisplatin (HEK/ABCB1 (ABCB1); +10 μM reversal agent): (1.09)
fold reversal, paclitaxel (HEK/ABCB1 (ABCB1); +10 μM reversal agent): (2.26)
fold reversal, vincristine (HEK/ABCB1 (ABCB1); +10 μM reversal agent): (2.45)
percentage of intracellular [^3H]-paclitaxel (HEK/MRP7 cells [1]; 30 min): 76.44%
percentage of intracellular [^3H]-paclitaxel (HEK/MRP7 cells [1]; 60 min): 63.41%
percentage of intracellular [^3H]-paclitaxel (HEK/MRP7 cells [1]; 120 min): 46.48%
effect on paclitaxel accumulation (KB-C2 cells (ABCB1); 10 μM): had significant effects on paclitaxel accumulation
fold reversal, cisplatin (KB-3-1; +5 μM reversal agent): (0.96)
fold reversal, colchicine (KB-3-1; +5 μM reversal agent): (0.86)
fold reversal, paclitaxel (KB-3-1; +5 μM reversal agent): (0.93)
fold reversal, cisplatin (KB-3-1; +10 μM reversal agent): (1.06)
fold reversal, colchicine (KB-3-1; +10 μM reversal agent): (0.89)
fold reversal, paclitaxel (KB-3-1; +10 μM reversal agent): (1.02)
fold reversal, cisplatin (KB-C2 (ABCB1); +5 μM reversal agent): (1.01)
fold reversal, colchicine (KB-C2 (ABCB1); +5 μM reversal agent): (4.19)
fold reversal, paclitaxel (KB-C2 (ABCB1); +5 μM reversal agent): (2.53)
fold reversal, cisplatin (KB-C2 (ABCB1); +10 μM reversal agent): (0.93)
fold reversal, colchicine (KB-C2 (ABCB1); +10 μM reversal agent): (6.38)
fold reversal, paclitaxel (KB-C2 (ABCB1); +10 μM reversal agent): (4.48)
increase of intracellular accumulation of [^3H]-paclitaxel (HEK/MRP7 cells [2]; 5 μM, 2 h): 2.1 fold
fold-resistance, docetaxel (HEK/MRP7; +1.25 μM reversal agent): (10.91)
fold-resistance, paclitaxel (HEK/MRP7; +1.25 μM reversal agent): (8.06)
fold-resistance, vinblastine (HEK/MRP7; +1.25 μM reversal agent): (4.58)
fold-resistance, cisplatin (HEK/MRP7; +5 μM reversal agent): (1.12)
fold-resistance, docetaxel (HEK/MRP7; +5 μM reversal agent): (8.35)
fold-resistance, paclitaxel (HEK/MRP7; +5 μM reversal agent): (5.87)
fold-resistance, vinblastine (HEK/MRP7; +5 μM reversal agent): (3.62)
fold-resistance, docetaxel (HEK 293-pcDNA-3.1; [5]): (1.09)
fold-resistance, paclitaxel (HEK 293-pcDNA-3.1; [5]): (1.07)
fold-resistance, vinblastine (HEK 293-pcDNA-3.1; [5]): (1.06)
fold-resistance, cisplatin (HEK 293-pcDNA-3.1; [6]): (1.11)
fold-resistance, docetaxel (HEK 293-pcDNA-3.1; [6]): (1.02)
fold-resistance, paclitaxel (HEK 293-pcDNA-3.1; [6]): (0.93)
fold-resistance, vinblastine (HEK 293-pcDNA-3.1; [6]): (0.95)
